# Assays:
# [1] = system: stress-induced release of cortisol; experiment: novelty test, stress-induced release of cortisol; type: in vivo, hamster; details: 10 μg/kg IP
# Experimental: The simple procedure of placing an adult male hamster into a novel environment for 5 min causes a significant, predictable increase in blood levels of cortisol (Weinberg and Wong 1986). This novelty test was used to assess the effects of CLAV on stress-induced release of cortisol. Two groups of male hamsters were treated IP with either CLAV (10 μg/kg, n=6), or saline vehicle (n=4). A third group (n=4) received no treatment or isolation stress and served as a control for basal levels of cortisol. Sixty min after treatment animals were taken from their home cage and placed into a novel cage for 5 min. Afterwards animals were sacrificed by decapitation and trunk blood collected for radioimmunoassay of cortisol. All animals were tested under reverse light:dark conditions four hrs into the dark cycle. Data were compared with a one-way ANOVA followed by Fisher PLSD post hoc tests.
# [2] = system: gram negative beta-lactamase enzymes; details: cited from earlier work
# [3] = system: male Wistar rats; experiment: general motor activity in an open field; type: in vivo, rat; details: 1.0 μg/kg IP, after the plus-maze test, vs vehicle
# Experimental: Immediately after each of the plus-maze tests reported above in Section II, animals were tested for general motor activity in an “open field.” Animals were placed into a large clean Plexiglas cage (48×32×40 cm) devoid of bedding. This open field was delineated into equal quadrants by tape on the underside of the cage. Animals were scored for motor activity by counting the number of quadrants traversed in 1 min.
# [4] = approximately 7-10 mg/kg/day, intravenous with ticarcillin; cited from earlier work
smiles,measurement,setting,value
"O=C(O)[C@H]1/C(=C/CO)O[C@@H]2CC(=O)N21 [CLAV, clavulanic acid]",effect on stress release of cortisol (summary),[1],no ostensible effect on the release of cortisol
same,"blood level of cortisol vs untreated, non-stressed control","[1]; 60 min, novel cage 5 min",more than twice the blood level of cortisol
same,inhibition of gram negative beta-lactamase enzymes,[2],15 to 34 nM
same,open field activity (quadrants traversed in 1 min),[3],no significant differences
same,adverse reactions or contraindications,[4],no reported adverse reactions or contraindications

# Source: patent US6610681B1, “Neurotherapeutic clavulanate composition and method” (Revaax Pharmaceuticals, LLC, priority 1999, dated 2003)
